Experimental data published in patent publication US5430005A, “Herbicidal compositions” (Monsanto Company, priority 1991, dated 1995).

Assay: Natural pH of aqueous solution
Type: physicochemical

## O=C(O)CNCP(=O)(O)O [N-phosphonomethylglycine]
  natural pH of aqueous solution: ~4.7
